In one data set the test system is HIN1. As to conditions: reducing infiltration of inflammatory cells, inhibiting pro-inflammatory cytokines; cited from earlier work.
The subject of data set [1] is SARS-COV-2. As to conditions: recent in vitro studies; cited from earlier work.
Another data set relates to PKC. Put plainly: Inventors' studies: TPA effect on PKC. Format: biochemical. An excerpt: (§1) More complex effects of TPA on MAPK pathways involve TPA regulation of immune cell differentiation and apoptosis.
The subject of a further data set is MAPK. Description: Inventors' studies: TPA effect on MAPK hyper-stimulation. The data set is classed as cell-based. As to conditions: reduced MAPK activation and phosphorylation activity.
Description: as §1

For data set [2], the system named is peripheral blood lymphocytes (predominantly T-cells). Description: Pilot studies: effect of TPA on peripheral blood lymphocytes. Format: cell-based. The text has this:
In addition to minimizing hyper-inflammatory activities of macrophages and neutrophils, TPA compositions and methods of the invention mediate protection of lymphocytes (prolongation of lifespan), and also directly stimulate lymphocyte proliferation and differentiation. […] This activity will protect and expand lymphocyte numbers, which in turn will mediate potent anti-viral effects.
(§2) The instant disclosure, in conjunction with ongoing pilot studies by the inventors, illustrates a wide range of pro-immune and anti-inflammatory effects of TPA that will potently mediate reduction and/or prevention of ARDS conditions and symptoms, as well as other pathogenic conditions and symptoms associated with severe COVID-19 disease. […] Exemplary pilot studies have shown that TPA compounds will effectively treat and prevent lymphocytopenia, by virtue that these compounds promote full range of pro-immune effects relating to activation, proliferation and survival of lymphocytes. […] Neutrophils are evidently “hijacked” and reprogrammed by SARS-COV-2 proteins (and other emergent pro-inflammatory factors that emerge in the course of COVID-19 disease development), leading to profound dysregulation of neutrophil immune and inflammatory activities. […]

Another data set has as its system MAPK and JAK. Put plainly: TPA pro-apoptotic effects via immune-regulatory kinases. Format: cell-based. The following applies: through interactions with MAPK and JAK.
Description: as §2

Data set [3] is classed as in vivo, C57Bl/6 mouse.
For data set [4], the system named is SARS-COV-2. As to conditions: after 48 h of infection with SARS-COV-2; cited from earlier work.
In data set [5] the test system is murine peritoneal macrophages. As to conditions: via suppression of ERK1/2 signaling; cited from earlier work.
A further data set has as its system IL-6. As to conditions: in vitro and in vivo; Stat3, Akt, ERK1/2 pathways; cited from earlier work.
For data set [6] the following is noted: polar organic solvents and water; cited from earlier work.
Another data set relates to COVID-19. As to conditions: human, in vivo; cited from earlier work.

The text below walks through data of patent US20260041660A1 (priority 2020, published 2026).

As to `O=C1CCC(N2C(=O)c3ccccc3C2=O)C(=O)N1` (stereo not shown) [Thalidomide], in the data set with HIN1, the “treatment of infected mice” value is given as “effective in treating HIN1-infected mice”.
In the case of `CCN(CCO)CCCC(C)Nc1ccnc2cc(Cl)ccc12` (stereo not shown) [hydroxychloroquine], the “viral load/titer of SARS-COV-2” value in the data set on SARS-COV-2 [1] is “effectively reduces viral load/titer of SARS-COV-2”.
`CCCCCCCCCCCCCC(=O)O[C@@H]1[C@H](C)[C@@]2(O)[C@@H](C=C(CO)C[C@]3(O)C(=O)C(C)=C[C@@H]23)[C@@H]2C(C)(C)[C@]12OC(C)=O` (stereo in doubt) [TPA, 12-O-tetradecanoylphorbol-13-acetate]: the “effect on PKC” value in the data set with PKC was “not only activates, but stabilizes PKC”. Besides, in the data set with MAPK, the MAPK hyper-stimulation result was “clinically beneficial reduction in MAPK hyper-stimulation”. In data set [2], the “mitogenic effect on peripheral blood lymphocytes” value was “direct, clinically effective mitogenic effect”. Besides, in the data set on MAPK and JAK, the apoptotic effects result was “pro-apoptotic effects”. Besides, in [3] (48 hrs), the “TNFα content in BALF samples” value is given as “reduction of TNFα content” and the “protein extravasation in BALF samples” value was “reduction of protein extravasation in BALF samples”. Besides, the “ROS generation of lavaged neutrophils” value in [3] (after 48 hours) was “significant reduction in ROS generation”. In data set [3] (mouse, in vivo), the “BALF WBC ROS production” value is on record as “significantly lower”; the “LPS-induced EBD extravasation” value is given as “suppression of LPS-induced EBD extravasation”; the “hyper-elevation of IL-6, IL-10, TNFα, MIP2 and other pro-inflammatory cytokines” value is reported as “block or reduce hyper-elevation”; the “monocyte/macrophage and neutrophil counts” value is “reduction in monocyte/macrophage and neutrophil counts”. In addition, in [3] (mouse, in vivo), the “neutrophil and RBC into pulmonary interstitial spaces and alveolar airspaces” value is “marked reduction in neutrophil and RBC”; the “presence of neutrophils in BALF” value is given as “significantly reduced”; the “swelling of the alveolar walls” value is on record as “reduced swelling of the alveolar walls”. Moreover, the “histopathologic changes of the lung” value in [3] (mouse, in vivo, iv) is listed as “markedly suppressed”.
Ivermectin: the “reduce viral RNA” value in the data set on SARS-COV-2 [4] is on record as “up to 5,000 fold”.
As to `C=C1CC[C@@H]2[C@](C)(CO)[C@H](O)CC[C@@]2(C)[C@@H]1C/C=C1/C(=O)OC[C@H]1O` [Andrographolide], the “production of TNF-α and interleukin-12” value in [5] is “inhibits the production of TNF-α and interleukin-12”. Moreover, the “IL-6 production and IL-6 hyper-inflammatory signaling” value with IL-6 was “inhibits IL-6 production and suppresses IL-6 hyper-inflammatory signaling in a dose-dependent manner”.
Regarding `CC1=C[C@H]2[C@@]3(O)[C@H](C)[C@@H](O)[C@]4(O)[C@H]([C@@H]3C=C(CO)C[C@]2(O)C1=O)C4(C)C` [Phorbol], the solubility result in [6] is “well soluble in most polar organic solvents and in water”.
Consider “TCZ: recombinant human anti-IL-6 monoclonal antibody that binds soluble and membrane-bound IL-6 receptors”, for which, in the data set on COVID-19, the “fever and other ARDS symptoms” value was “reduces fever and other ARDS symptoms”; the “patients with opacity lung lesion on CT scans absorbed” value is 90.5%; the “patients with peripheral lymphocyte levels returned to normal” value is given as 52.6%; the “treated subjects showing improved oxygenation” value is given as 75.0%.
